Reference: patent publication US11691951B2 (Curtana Pharmaceuticals, Inc., priority 2015, dated 2023)

Each molecule was assayed on GBM8 cells (human glioblastoma neurosphere cell culture) (assay: GBM8 viability assay (Cell Titer Glo luminescence, 3 days)). Settings: 72 h, 3 days incubation.
Format: cell-based
Protocol: Example 283: GBM4 and GBM8 Viability Assay
Cell culture medium was prepared from a NSA proliferation kit (Neurocult) and NeuroCult supplements (Stemcell Tech Cat. #05751) and treated with 20 μL of 10 μg/mL rh EGF, 10 μL of 10 μg/mL rh bFGF and 10 μL of 0.2% Heparin. In this medium, human glioblastoma cells were cultured in ultra-low attachment tissue culture flasks until 1×10^6 cells ml was achieved (GBM4 and GBM8 are distinct neurosphere cell cultures derived from these human patient tissues). GBM4 and GBM8 cells were dissociated and 10 mL of media containing 4000 human glioblastoma cells per 90 uL were transferred to an ultra-low binding 96-well plate and incubated at 37° C. overnight. On the following day, 10 μL of a 1% DMSO solution of test compound in assay medium was added to wells containing the cell suspension and the mixture incubated at 37° C. for 3 days. At this time, the plate was removed from the incubator and allowed to reach room temperature. After about 30 minutes, 50 μL of Cell Titer Glo solution was added to each well and the plate shaken for 1 minute at low speed. After 10 minutes luminescence was recorded using a Tecan Safire2 reader.
Reduction in luminescence compared to DMSO only control wells was used to determine the percentage inhibition of cell growth. IC50s were calculated using the % inhibition of luminescence for serial dilutions of compounds fitted to a 4-parameter fit within the Prism (San Diego) curve fitting program.
For `Cc1cc(NCCN)nc(NC(=O)Nc2ccc(F)c(Cl)c2)n1` [Compound 162], the IC50 was < 1000 nM. With `Cc1cc(NCCCCO)nc(NC(=O)Nc2ccc(F)c(Cl)c2)n1` [Compound 163] the IC50 was < 1000 nM. With `Cc1cc(NCC(C)O)nc(NC(=O)Nc2ccc(F)c(Cl)c2)n1` (stereo not shown) [Compound 164] the IC50 was < 1000 nM. For `CCCNc1cc(C)nc(NC(=O)Nc2ccc(F)c(Cl)c2)n1` [Compound 165], the IC50 was < 1000 nM. `Cc1cc(NCCOCCO)nc(NC(=O)Nc2ccc(F)c(Cl)c2)n1` [Compound 166] was tested, and the IC50 was < 1000 nM. `COC(=O)CCNc1cc(C)nc(NC(=O)Nc2ccc(F)c(Cl)c2)n1` [Compound 167] showed an IC50 of 1000 to 10000 nM. `CNCCNc1cc(C)nc(NC(=O)Nc2ccc(F)c(Cl)c2)n1` [Compound 169, 1-(3-chloro-4-fluorophenyl)-3-(4-methyl-6-((2-(methylamino)ethyl)amino)pyrimidin-2-yl)urea] was tested, and the IC50 was < 1000 nM. For `CNCCCNc1cc(C)nc(NC(=O)Nc2ccc(F)c(Cl)c2)n1` [Compound 170], the IC50 was < 1000 nM. With `Cc1cc(NCCCN(C)C)nc(NC(=O)Nc2cccc(OC(F)(F)F)c2)n1` [Compound 172, 1-(4-((3-(dimethylamino)propyl)amino)-6-methylpyrimidin-2-yl)-3-(3-(trifluoromethoxy)phenyl)urea] the IC50 was < 1000 nM. For `Cc1cc(NCCCCN)nc(NC(=O)Nc2cccc(OC(F)(F)F)c2)n1` [Compound 173], the IC50 was < 1000 nM. `Cc1cc(NCCN(C)C)nc(NC(=O)Nc2cccc(OC(F)(F)F)c2)n1` [Compound 174] gave an IC50 of 1000 to 10000 nM. In the case of `Cc1cc(NCCCCO)nc(NC(=O)Nc2cccc(OC(F)(F)F)c2)n1` [Compound 175], the IC50 is reported as < 1000 nM. In the case of `Cc1cc(NCCO)nc(NC(=O)Nc2cccc(OC(F)(F)F)c2)n1` [Compound 176], the IC50 is reported as < 1000 nM. In the case of `Cc1cc(NCCCN)nc(NC(=O)Nc2cccc(OC(F)(F)F)c2)n1` [Compound 177], the IC50 is reported as < 1000 nM. `Cc1cc(NCCN)nc(NC(=O)Nc2cccc(OC(F)(F)F)c2)n1` [Compound 178] was tested, and the IC50 was < 1000 nM. With `Cc1cc(NCCCN(C)C)nc(NC(=O)Nc2cccc(C(F)(F)F)c2)n1` [Compound 180, 1-(4-((3-(dimethylamino)propyl)amino)-6-methylpyrimidin-2-yl)-3-(3-(trifluoromethyl)phenyl)urea] the IC50 was < 1000 nM. For `Cc1cc(NCCCCO)nc(NC(=O)Nc2cccc(C(F)(F)F)c2)n1` [Compound 181], the IC50 was < 1000 nM. With `Cc1cc(NCCN)nc(NC(=O)Nc2cccc(C(F)(F)F)c2)n1` [Compound 182] the IC50 was < 1000 nM. `Cc1cc(NCCOCCO)nc(NC(=O)Nc2cccc(C(F)(F)F)c2)n1` [Compound 183] gave an IC50 of 1000 to 10000 nM. `Cc1cc(NCCO)nc(NC(=O)Nc2cccc(C(F)(F)F)c2)n1` [Compound 184] was tested, and the IC50 was < 1000 nM. With `Cc1cc(NCC(C)O)nc(NC(=O)Nc2cccc(C(F)(F)F)c2)n1` (stereo not shown) [Compound 185] the IC50 was < 1000 nM. With `Cc1cc(NCC(O)CO)nc(NC(=O)Nc2cccc(C(F)(F)F)c2)n1` (stereo not shown) [Compound 187] the IC50 was < 1000 nM. For `Cc1cc(NCC(F)(F)CO)nc(NC(=O)Nc2cccc(C(F)(F)F)c2)n1` [Compound 188], the IC50 was < 1000 nM. `Cc1cc(NCCN(C)C)nc(NC(=O)Nc2cccc(C(F)(F)F)c2)n1` [Compound 189] showed an IC50 of 1000 to 10000 nM. In the case of `Cc1cc(NCCCCN)nc(NC(=O)Nc2cccc(C(F)(F)F)c2)n1` [Compound 190], the IC50 is reported as < 1000 nM. `Cc1cc(NCCCCN(C)C)nc(NC(=O)Nc2cccc(C(F)(F)F)c2)n1` [Compound 191] was tested, and the IC50 was < 1000 nM. For `Cc1cc(NCCCN)nc(NC(=O)Nc2cccc(C(F)(F)F)c2)n1` [Compound 192], the IC50 was < 1000 nM. With `CNCCCNc1cc(C)nc(NC(=O)Nc2cccc(C(F)(F)F)c2)n1` [Compound 194, 1-(4-methyl-6-((3-(methylamino)propyl)amino)pyrimidin-2-yl)-3-(3-(trifluoromethyl)phenyl)urea] the IC50 was < 1000 nM. For `Cc1cc(NCCCN(C)C)nc(NC(=O)Nc2ccc(C(F)(F)F)cc2)n1` [Compound 196, 1-(4-((3-(dimethylamino)propyl)amino)-6-methylpyrimidin-2-yl)-3-(4-(trifluoromethyl)phenyl)urea], the IC50 was < 1000 nM. `Cc1cc(NCCCCN)nc(NC(=O)Nc2ccc(C(F)(F)F)cc2)n1` [Compound 197] was tested, and the IC50 was < 1000 nM. `Cc1cc(NCC(C)O)nc(NC(=O)Nc2ccc(C(F)(F)F)cc2)n1` (stereo not shown) [Compound 198] was tested, and the IC50 was < 1000 nM. `Cc1cc(NCCOCCO)nc(NC(=O)Nc2ccc(C(F)(F)F)cc2)n1` [Compound 199] was tested, and the IC50 was < 1000 nM. In the case of `Cc1cc(NCCCCO)nc(NC(=O)Nc2ccc(C(F)(F)F)cc2)n1` [Compound 200], the IC50 is reported as < 1000 nM. For `Cc1cc(NCCO)nc(NC(=O)Nc2ccc(C(F)(F)F)cc2)n1` [Compound 201], the IC50 was < 1000 nM. For `CCCNc1cc(C)nc(NC(=O)Nc2ccc(C(F)(F)F)cc2)n1` [Compound 202], the IC50 was < 1000 nM. For `Cc1cc(NCCN(C)C)nc(NC(=O)Nc2ccc(C(F)(F)F)cc2)n1` [Compound 203], the IC50 was < 1000 nM. `Cc1cc(NCCCN)nc(NC(=O)Nc2ccc(C(F)(F)F)cc2)n1` [Compound 204] showed an IC50 of 1000 to 10000 nM. Molecule `CNCCCN(C)c1cc(C)nc(NC(=O)Nc2ccc(C(F)(F)F)cc2)n1` [Compound 205] has an IC50 of 1000 to 10000 nM. For `Cc1cc(NCC2CCCN(C)C2)nc(NC(=O)Nc2ccc(C(F)(F)F)cc2)n1` (stereo not shown) [Compound 206], the IC50 was 1000 to 10000 nM. `Cc1cc(NCCN)nc(NC(=O)Nc2ccc(C(F)(F)F)cc2)n1` [Compound 207] was tested, and the IC50 was < 1000 nM. With `Cc1cccc(NC(=O)Nc2nc(C)cc(NCCCN(C)C)n2)c1` [Compound 209, 1-(4-((3-(dimethylamino)propyl)amino)-6-methylpyrimidin-2-yl)-3-(m-tolyl)urea] the IC50 was < 1000 nM. For `Cc1cccc(NC(=O)Nc2nc(C)cc(NCCCN)n2)c1` [Compound 210], the IC50 was < 1000 nM. `Cc1cccc(NC(=O)Nc2nc(C)cc(NCCO)n2)c1` [Compound 211] was tested, and the IC50 was < 1000 nM. With `Cc1cccc(NC(=O)Nc2nc(C)cc(NCCCCO)n2)c1` [Compound 212] the IC50 was < 1000 nM. With `Cc1cccc(NC(=O)Nc2nc(C)cc(NCCN)n2)c1` [Compound 213] the IC50 was < 1000 nM. Work on `Cc1cccc(NC(=O)Nc2nc(C)cc(NCC3CCCN(C)C3)n2)c1` (stereo not shown) [Compound 214] yielded an IC50 of 1000 to 10000 nM. In the case of `Cc1cccc(NC(=O)Nc2nc(C)cc(NCCN(C)C)n2)c1` [Compound 215], the IC50 is reported as < 1000 nM. With `Cc1cccc(NC(=O)Nc2nc(C)cc(NCCCCN)n2)c1` [Compound 216] the IC50 was < 1000 nM. With `Cc1cccc(NC(=O)Nc2nc(C)cc(NCCOCCO)n2)c1` [Compound 217] the IC50 was < 1000 nM. With `CCCNc1cc(C)nc(NC(=O)Nc2cccc(C)c2)n1` [Compound 218] the IC50 was < 1000 nM. With `Cc1cccc(NC(=O)Nc2nc(C)cc(NCC(C)O)n2)c1` (stereo not shown) [Compound 219] the IC50 was < 1000 nM. In the case of `COC(=O)CCNc1cc(C)nc(NC(=O)Nc2cccc(C)c2)n1` [Compound 220], the IC50 is reported as 1000 to 10000 nM. For `Cc1cccc(NC(=O)Nc2nc(C)cc(NCCCc3ccccn3)n2)c1` [Compound 221], the IC50 was 1000 to 10000 nM. For `Cc1cccc(NC(=O)Nc2nc(C)cc(NCC(O)CO)n2)c1` (stereo not shown) [Compound 223], the IC50 was < 1000 nM. In the case of `CCNc1cc(C)nc(NC(=O)Nc2cccc(C)c2)n1` [Compound 224], the IC50 is reported as < 1000 nM. For `Cc1cccc(NC(=O)Nc2nc(C)cc(NCCCc3cnc[nH]3)n2)c1` [Compound 226], the IC50 was < 1000 nM. With `Cc1cccc(NC(=O)Nc2nc(C)cc(NCCCCN(C)C)n2)c1` [Compound 227] the IC50 was < 1000 nM. `CNCCNc1cc(C)nc(NC(=O)Nc2cccc(C)c2)n1` [Compound 229, 1-(4-methyl-6-((2-(methylamino)ethyl)amino)pyrimidin-2-yl)-3-(m-tolyl)urea] gave an IC50 of 1000 to 10000 nM. With `CNCCCNc1cc(C)nc(NC(=O)Nc2cccc(C)c2)n1` [Compound 230] the IC50 was < 1000 nM. `CNCCCCNc1cc(C)nc(NC(=O)Nc2cccc(C)c2)n1` [Compound 231] showed an IC50 of 1000 to 10000 nM. In the case of `Cc1cccc(NC(=O)Nc2nc(C)cc(NCC3CCCNC3)n2)c1` (stereo not shown) [Compound 232], the IC50 is reported as < 1000 nM. With `Cc1ccc(NC(=O)Nc2nc(C)cc(NCCCN(C)C)n2)cc1` [Compound 234, 1-(4-((3-(dimethylamino)propyl)amino)-6-methylpyrimidin-2-yl)-3-(p-tolyl)urea] the IC50 was < 1000 nM. For `Cc1ccc(NC(=O)Nc2nc(C)cc(NCCCN)n2)cc1` [Compound 236], the IC50 was < 1000 nM. For `Cc1ccc(NC(=O)Nc2nc(C)cc(NCCN)n2)cc1` [Compound 237], the IC50 was < 1000 nM. `Cc1ccc(NC(=O)Nc2nc(C)cc(NCCOCCO)n2)cc1` [Compound 238] gave an IC50 of 1000 to 10000 nM. For `Cc1ccc(NC(=O)Nc2nc(C)cc(NCCCCO)n2)cc1` [Compound 239], the IC50 was < 1000 nM. With `Cc1ccc(NC(=O)Nc2nc(C)cc(NCCO)n2)cc1` [Compound 240] the IC50 was < 1000 nM. `Cc1ccc(NC(=O)Nc2nc(C)cc(NCCCCN)n2)cc1` [Compound 241] was tested, and the IC50 was < 1000 nM. With `Cc1ccc(NC(=O)Nc2nc(C)cc(NCCN(C)C)n2)cc1` [Compound 242] the IC50 was 1000 to 10000 nM. `Cc1ccc(NC(=O)Nc2nc(C)cc(NCCCc3cnc[nH]3)n2)cc1` [Compound 243] was tested, and the IC50 was < 1000 nM. Molecule `Cc1ccc(NC(=O)Nc2nc(C)cc(NCCCCN(C)C)n2)cc1` [Compound 245] has an IC50 of 1000 to 10000 nM. In the case of `Cc1ccc(NC(=O)Nc2nc(C)cc(NCC(O)CO)n2)cc1` (stereo not shown) [Compound 246], the IC50 is reported as < 1000 nM. Work on `CNCCCNc1cc(C)nc(NC(=O)Nc2ccc(C)cc2)n1` [Compound 248, 1-(4-methyl-6-((3-(methylamino)propyl)amino)pyrimidin-2-yl)-3-(p-tolyl)urea] yielded an IC50 of 1000 to 10000 nM.
